Results: patent US20120172344A1, “INSULIN-PRODUCING CELL INDUCER, GLUCOSE INTAKE ENHANCER, AND THERAPEUTIC AGENT FOR DIABETES OR DIABETES COMPLICATIONS” (KYUSHU UNIVERSITY, NATIONAL UNIVERSITY CORPORATION, priority 2009, published 2012)

Tested on: muscles (soleus muscle) of Tg23 mice
Experiment: Experimental Example 3: glucose (2-deoxy-D-glucose) intake of soleus muscles
Format: in vivo, mouse
Conditions: isolated soleus muscles of WT and Tg mice incubated in KRB buffer with vs without insulin, 10 minutes at 30° C.
Protocol: Mice were sacrificed, and extensor digitorum longus (EDL) muscles and soleus muscles were quickly removed and processed. Both ends of each of the muscles were tied with suture (silk 4-0), and mounted on an incubation apparatus. First, the muscles were preincubated for 20 minutes in 6 ml of Krebs-Ringer bicarbonate (KRB) buffer (117 mM NaCl, 4.7 mM KCl, 2.5 mM CaCl2, 1.2 mM KH2PO4, 1.2 mM MgSO4, 24.6 mM NaHCO3, pH 7.5) containing 2 mM pyruvate. Then, the muscles were incubated in KRB buffer in presence or absence of insulin.
Immediately after muscle incubation, the muscles were transferred to KRB buffer containing 1 mM 2-deoxy-D-[^3H]glucose (1.5 μCi/ml) and 7 mM D-[^14C]mannitol (0.3 μCi/ml) (PerkinElmer Life Sciences) at 30° C., and incubated again for 10 minutes. When using insulin, a buffer containing insulin was used for incubation in a similar manner.
Glucose transport was terminated by dipping the muscles in KRB buffer containing 80 μmol/L cytochalasin B at 4° C., and then the muscles were frozen in liquid nitrogen. The muscles were weighed, and digested by incubating in 250 μl of 1 M NaOH at 80° C. for 10 minutes. Digests were neutralized with 250 μl of 1 M HCl. […] Radioactivity in aliquots of the digested muscle was determined by liquid scintillation counting for dual labels, and extracellular and intracellular spaces were calculated. […]

insulin
amount of glucose intake of muscles in presence (+) of insulin: increased
